One data set relates to MCF-7. Briefly: Lysosomal and mitochondrial NO levels (Lyso-NO, Mito-NO probes), MCF-7. Particulars: 9e. Format: cell-based, human. The protocol:
(§1) Lysosomal NO probes (Lyso-NO) and mitochondrial NO probes (Mito-NO), which are specifically used for detecting the nitric oxide levels in lysosomes and mitochondria, respectively, were provided by Professor Weili Zhao (Fudan University, China). Cells (MCF-7 or MCF-7/ADR) were plated in 6-well plates (2 × 10^5 cells/well). After overnight incubation, indicated concentrations of 9e were added to the cells for 4 h. Cells were first treated with 10 μM Lyso-NO or Mito-NO (15 min, 37 °C), then counterstained with Hoechst 33,342 nuclear dye (Beyotime, China; 10 min, 37 °C). Finally, the fluorescence intensity was measured under a fluorescence microscope (Olympus, Tokyo, Japan).

Data set [1] in a line: Solubility experiment (HPLC) in water/acetonitrile. Format: physicochemical. Particulars: in water/acetonitrile (table title). The protocol:
Wavelength: 254 nm; flow rate: 1.0 mL/min; column temperature: 25 °C. Mobile phase: Phase A: water, Phase B: acetonitrile (Table 5).
Compounds were dissolved in chromatographic-grade acetonitrile and diluted to concentrations of 200, 100, 50, 25, 12.5, and 6.25 µg/mL. A standard curve was plotted using the peak area under the curve (AUC) versus concentration. […] The supernatant was filtered through an ultrafiltration membrane and then subjected to HPLC analysis. The solubility of the target compound was determined by substituting the AUC of the test compound into the standard curve. Each measurement was performed in triplicate.

A further data set relates to GPX4 in MCF-7/ADR. Nature of the data set: Western blot of GPX4. In kind it is cell-based, human. The following applies: after treatment of 9e. The protocol:
MCF-7/ADR (2 × 10^5 cells/well) were plated in 6-well plates. After 24 h treatment with 9e (20 nM), cell lysates were prepared using RIPA buffer (Beyotime, Shanghai, China; 30 min, ice), then centrifuged (12,000 rpm, 10 min, 4 °C) to harvest protein supernatants. Protein concentrations were measured by BCA assay (Beyotime, Shanghai, China). The supernatants were then loaded and transferred onto PVDF membranes (Millipore, Billerica, MA, USA) for western blot. The blots were developed with ECL chemiluminescent solution (Meilunbio, Dalian, China). Commercially purchased antibodies include P-gp (Abcam, Cambridge, UK; ab170904), Caspase 3 (Proteintech, Wuhan, China; 19677-1-AP), Bcl-2 (Servicebio, Wuhan, China; GB113375-100), LC3 (Abcam, Abcam, Cambridge, UK; ab192890), P62 (Cell Signaling Technology, Danvers, MA, USA; 5114 T), Beclin (ABclonal, Wuhan, China; A7353), GPX4 (ABclonal, Wuhan, China; A11243), LAMP1 (Cell Signaling Technology, Danvers, MA, USA;15,665 T), GAPDH (Servicebio, Wuhan, China; GB11002-100), and β-Actin (Servicebio, Wuhan, China;GB11001-100). The secondary antibodies conjugated with horseradish peroxidase (HRP) were from Abmart.
On the technique in general: Immunoblotting shows a protein as a band on a membrane.

The target in a further data set is T1, hERG potassium channels (Homo sapiens, UniProt Q12809).
T1 construct: expressed in transfected cells; host or cells: CHO-hERG cells (CHO cells expressing hERG)
T1 sequence (Q12809 whole entry): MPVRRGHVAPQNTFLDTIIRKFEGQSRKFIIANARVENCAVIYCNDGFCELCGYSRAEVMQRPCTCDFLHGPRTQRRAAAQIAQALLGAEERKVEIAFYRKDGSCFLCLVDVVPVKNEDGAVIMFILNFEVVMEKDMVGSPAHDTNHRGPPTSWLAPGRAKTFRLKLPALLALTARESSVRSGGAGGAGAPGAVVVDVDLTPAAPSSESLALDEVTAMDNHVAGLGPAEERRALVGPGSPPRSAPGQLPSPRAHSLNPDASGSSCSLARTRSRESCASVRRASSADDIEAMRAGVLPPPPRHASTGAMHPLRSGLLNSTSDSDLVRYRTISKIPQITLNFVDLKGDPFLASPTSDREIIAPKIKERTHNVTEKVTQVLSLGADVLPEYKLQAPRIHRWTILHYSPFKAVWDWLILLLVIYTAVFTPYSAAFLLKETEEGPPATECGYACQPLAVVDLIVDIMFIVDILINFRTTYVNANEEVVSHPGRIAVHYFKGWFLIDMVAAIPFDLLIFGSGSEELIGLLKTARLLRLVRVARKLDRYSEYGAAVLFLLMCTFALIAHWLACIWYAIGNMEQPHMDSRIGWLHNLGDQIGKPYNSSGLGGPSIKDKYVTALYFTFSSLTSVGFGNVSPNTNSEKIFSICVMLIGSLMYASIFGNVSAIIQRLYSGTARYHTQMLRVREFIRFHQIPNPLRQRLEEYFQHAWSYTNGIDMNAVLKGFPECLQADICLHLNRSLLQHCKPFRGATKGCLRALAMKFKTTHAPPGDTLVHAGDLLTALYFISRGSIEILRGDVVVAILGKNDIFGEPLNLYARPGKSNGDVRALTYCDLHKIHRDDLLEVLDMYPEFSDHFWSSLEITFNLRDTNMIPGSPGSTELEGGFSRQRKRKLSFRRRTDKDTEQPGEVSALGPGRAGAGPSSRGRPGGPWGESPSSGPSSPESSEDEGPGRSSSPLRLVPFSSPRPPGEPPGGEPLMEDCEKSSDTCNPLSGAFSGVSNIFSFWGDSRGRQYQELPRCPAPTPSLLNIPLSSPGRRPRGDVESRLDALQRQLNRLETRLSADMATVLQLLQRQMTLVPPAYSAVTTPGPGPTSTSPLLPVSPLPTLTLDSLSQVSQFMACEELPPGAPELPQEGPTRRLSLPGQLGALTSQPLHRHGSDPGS
Briefly: Inhibition of hERG potassium channels (QPatch patch clamp, CHO-hERG cells). In kind it is cell-based. The procedure:
CHO-hERG cells (2 × 10^6 cells/dish) were seeded in confocal dishes. The compound stock solution was diluted with DMSO to six concentrations: 40.00, 13.33, 4.44, 1.48, 0.49, and 0.16 μM, which was prepared by using the Bravo platform. Both single-cell high-resistance sealing and whole-cell mode formation were automatically performed by the QPatch system (Shanghai Institute of Materia Medica, Shanghai, China). Each concentration was tested on at least two cells (n ≥ 2).
(In general: The hERG channel carries a current that helps repolarise heart muscle cells.)

Data set [2] has as its system MCF-7/ADR. Briefly: Lysosomal and mitochondrial NO levels (Lyso-NO, Mito-NO probes), MCF-7/ADR. In kind it is cell-based, human. The protocol: as §1
Data set [3] concerns MCF-7/ADR. Briefly: Cell apoptosis analysis (Annexin V-FITC/PI flow cytometry). In kind it is cell-based, human. Particulars: 9e 10 nM, control 5.53%. The procedure: MCF-7/ADR (2 × 10^5 cells/well) were plated in 6-well plates and cultured overnight. Following 24 h treatment with specified concentrations of 9e, cells were harvested and analyzed by Annexin V-FITC apoptosis detection kit (Beyotime, Shanghai, China). Cell populations were subsequently analyzed by flow cytometry (Beckman, Brea, CA, USA).

On to `COc1ccc(CCC(=O)c2ccc(OCCOc3no[n+]([O-])c3S(=O)(=O)c3ccccc3)cc2OC)cc1` [Compound 9e, 4-(2-(3-methoxy-4-(3-(4-methoxyphenyl)propanoyl)phenoxy)ethoxy)-3-(phenylsulfonyl)-1,2,5-oxadiazole 2-oxide], for which the “Lyso-NO and Mito-NO probe fluorescence intensity” value in the data set with MCF-7 is “no increase in fluorescence intensity”. The same molecule gave a Solubility in data set [1] of 56.4 ± 5.5%. Besides, the “expression of GPX4” value in the data set on GPX4 in MCF-7/ADR was “clearly decreased”. In addition, the IC50 (in general, the midpoint of a concentration-inhibition curve) against hERG potassium channels was more than 40 µM. For the same molecule, the Lyso-NO probe signal entry in the data set with MCF-7/ADR [2] (10 nM 9e, vs vehicle) is reported as “significant rise”. Also, the Mito-NO probe signal result with MCF-7/ADR [2] (9e, vs control) is given as “no difference”. Also, the “apoptosis (Q2+Q3)” value in the data set with MCF-7/ADR [3] is 37.1%.

Source of the values: paper PMC12156367, “Synthesis and Biological Evaluation of Seco-Coumarin/Furoxan Hybrids as Potent Anti-Tumor Agents to Overcome Multidrug Resistance via Multiple Mechanisms” (Molecules, 2025).
